Data from the supplement of paper PMC10307832.

Experiments:
Assay in all cases: relative viability (nuclei count vs DMSO), 5 days (fraction); higher = more cells survive
[1] = compound: CN1C=C(C2=CC=CC=C21)/C=C\3/C4=C(C=CC=N4)NC3=O + CC(C)C[C@H](NC(=O)[C@H](Cc1ccccc1)NC(=O)c1cnccn1)B(O)O [Bortezomib] (partner 0.002 µM)
Procedure, shortened: (§1)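 Nuclei were stained with Hoechst during a one-step fixation (final 0.05% Triton X-100, 1% formaldehyde, 1 ug/ml Hoechst) carried out 5 days after dosing, then counted on 4× images. The cells, lung cancer lines in 1536-well plates, had been dosed by pin tool the day after seeding with one drug alone or a fixed anchor-drug dose plus five library-drug doses (not always all listed) in √10 steps. Relative viability is the nuclei count in treated wells divided by that in vehicle wells, and each value is the median of duplicate plates.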

Trametinib + Tozasertib = compound: CC(=O)Nc1cccc(-n2c(=O)n(C3CC3)c(=O)c3c(Nc4ccc(I)cc4F)n(C)c(=O)c(C)c32)c1 [Trametinib] + Cc1cc(Nc2cc(N3CCN(C)CC3)nc(Sc3ccc(NC(=O)C4CC4)cc3)n2)n[nH]1 [Tozasertib] (partner 0.1 µM)
Procedure, shortened: as §1

Trametinib + AZD7762 = compound: CC(=O)Nc1cccc(-n2c(=O)n(C3CC3)c(=O)c3c(Nc4ccc(I)cc4F)n(C)c(=O)c(C)c32)c1 [Trametinib] + NC(=O)Nc1cc(-c2cccc(F)c2)sc1C(=O)N[C@H]1CCCNC1 [AZD7762] (partner 0.2 µM)
Procedure, shortened: as §1

[2] = compound: CN1C=C(C2=CC=CC=C21)/C=C\3/C4=C(C=CC=N4)NC3=O + CS(=O)(=O)CCNCc1ccc(-c2ccc3ncnc(Nc4ccc(OCc5cccc(F)c5)c(Cl)c4)c3c2)o1 [Lapatinib] (partner 2 µM)
Procedure, shortened: as §1

Row | Cell Line | relative viability ([1]; first compound 0.06325 µM) | relative viability ([1]; first compound 0.6325 µM) | relative viability ([1]; first compound 2 µM) | relative viability (Trametinib + Tozasertib; first compound 0.0025 µM) | relative viability (Trametinib + Tozasertib; first compound 0.007906 µM) | relative viability (Trametinib + Tozasertib; first compound 0.025 µM) | relative viability (Trametinib + Tozasertib; first compound 0.07906 µM) | relative viability (Trametinib + Tozasertib; first compound 0.25 µM) | relative viability (Trametinib + AZD7762; first compound 0.0025 µM) | relative viability (Trametinib + AZD7762; first compound 0.007906 µM) | relative viability (Trametinib + AZD7762; first compound 0.025 µM) | relative viability (Trametinib + AZD7762; first compound 0.07906 µM) | relative viability (Trametinib + AZD7762; first compound 0.25 µM) | relative viability ([2]; first compound 0.02 µM) | relative viability ([2]; first compound 0.6325 µM) | relative viability ([2]; first compound 2 µM) | relative viability ([1]; first compound 0.02 µM) | relative viability ([2]; first compound 0.06325 µM) | relative viability ([1]; first compound 0.2 µM) | relative viability ([2]; first compound 0.2 µM)
1 | LCLC-97TM1 | 0.444 | 0.521 | 0.517 | 0.202 | 0.29 | 0.225 | 0.143 | 0.19 | 0.352 | 0.306 | 0.137 | 0.161 | 0.123 | 0.696 | 0.882 | 0.948 | – | – | – | –
2 | A-427 | 0.9 | 1.03 | 1.21 | 0.217 | 0.159 | 0.158 | 0.166 | 0.173 | 0.662 | 0.573 | 0.525 | 0.373 | 0.371 | 0.972 | 0.998 | 1.07 | 0.939 | 1.04 | – | –
3 | ABC-1 | 0.257 | 0.299 | 0.372 | 0.169 | 0.153 | 0.154 | 0.148 | 0.158 | 0.801 | 0.756 | 0.562 | 0.555 | 0.915 | 1.39 | 1.25 | 1.28 | 0.368 | 1.16 | 0.285 | 1.12
4 | NCI-H460 | 1.1 | – | 1.14 | 0.267 | 0.262 | 0.278 | 0.152 | 0.0343 | 0.731 | 0.751 | 0.739 | 0.505 | 0.338 | 1.11 | – | 1.23 | 1.23 | 1.06 | 1.07 | 1.09
5 | NCI-H23 | 0.982 | 0.938 | 1.21 | 0.339 | 0.211 | 0.283 | 0.248 | 0.213 | 0.256 | 0.233 | 0.232 | 0.158 | 0.191 | 0.926 | 0.892 | 0.991 | 1.02 | 0.952 | – | –
6 | LOU-NH91 | 0.489 | 0.441 | 0.485 | 0.639 | 0.609 | 0.592 | 0.548 | 0.399 | 0.769 | 0.704 | 0.704 | 0.676 | 0.548 | 0.578 | 0.601 | 0.668 | 0.473 | 0.577 | 0.468 | 0.59
7 | NCI-H2126 | 1.15 | 1.16 | 1.12 | 0.784 | 0.694 | 0.523 | 0.653 | 0.576 | 1.05 | 0.929 | 0.632 | 0.766 | 0.753 | 0.678 | 0.748 | 0.674 | 1.19 | 0.796 | 1.09 | 0.671
8 | NCI-H1437 | 0.613 | 0.511 | 0.54 | 0.266 | 0.289 | 0.239 | 0.204 | 0.175 | 1.13 | 0.981 | 0.625 | 0.466 | 0.454 | 0.837 | 0.841 | 0.938 | 0.629 | 0.842 | 0.475 | 0.708
9 | NCI-H838 | 0.769 | 0.785 | 0.818 | 0.275 | 0.24 | 0.225 | 0.217 | 0.22 | 0.943 | 0.827 | 0.858 | 0.858 | 0.697 | 0.774 | 0.785 | 0.896 | 0.79 | 0.9 | 0.835 | 0.813
10 | NCI-H1755 | 0.889 | 0.953 | 0.87 | 0.544 | 0.537 | 0.604 | 0.63 | 0.545 | 0.457 | 0.405 | 0.428 | 0.426 | 0.352 | 0.966 | 0.959 | 0.958 | 0.953 | 0.918 | 0.868 | 0.903
11 | NCI-H1915 | 1 | 1.11 | 1.15 | 0.453 | 0.337 | 0.268 | 0.219 | 0.165 | 0.702 | 0.715 | 0.405 | 0.365 | 0.218 | 0.921 | 1.09 | 1.05 | 0.913 | 0.98 | 0.962 | 0.898
12 | NCI-H2347 | 1.01 | 0.615 | 1 | 0.509 | 0.33 | 0.176 | 0.154 | 0.185 | 0.642 | 0.41 | 0.296 | 0.29 | 0.296 | 0.953 | 0.793 | 0.881 | 0.976 | 1.02 | 0.906 | 0.876
13 | HARA | 1.09 | 1.18 | 1.14 | 0.12 | 0.101 | 0.0849 | 0.108 | 0.0591 | 0.447 | 0.394 | 0.365 | 0.276 | 0.215 | 0.703 | 0.857 | 0.768 | 1.06 | 0.653 | 0.87 | 0.665
14 | NCI-H2085 | 1.07 | 1.07 | 1.04 | 0.721 | 0.598 | 0.551 | 0.561 | 0.621 | 0.81 | 0.752 | 0.391 | 0.518 | 0.541 | 0.746 | 0.605 | 0.813 | 0.993 | 0.654 | 0.995 | 0.596
15 | NCI-H650 | 0.859 | 0.725 | 0.879 | 0.733 | 0.774 | 0.621 | 0.569 | 0.329 | 1.06 | 1.15 | 1.03 | 0.614 | 0.655 | 0.824 | 0.754 | 0.82 | 0.702 | 0.738 | – | –
16 | NCI-H727 | 0.564 | 1.24 | 1.32 | 0.353 | 0.337 | 0.287 | 0.231 | 0.279 | 0.356 | 0.386 | 0.315 | 0.279 | 0.355 | 0.757 | 0.914 | 0.767 | 0.923 | 0.688 | 0.646 | 0.428
17 | NCI-H1993 | 1.09 | 0.691 | 0.697 | 0.539 | 0.498 | 0.568 | 0.558 | 0.459 | 0.694 | 0.716 | 0.395 | 0.504 | 0.472 | 0.694 | 0.788 | 0.909 | 0.916 | 0.497 | 1.09 | 0.83
18 | EMC-BAC-2 | 1.05 | 1.05 | 1.14 | 0.369 | 0.354 | 0.41 | 0.457 | 0.328 | 1.19 | 1.14 | 0.994 | 0.932 | 0.757 | 0.883 | 0.836 | 0.921 | 0.901 | 0.91 | 1.01 | 0.934
19 | NCI-H2087 | 0.815 | 0.839 | 0.836 | 0.189 | 0.166 | 0.111 | 0.12 | 0.108 | 1.26 | 1.38 | 0.633 | 0.313 | 0.324 | 1.28 | 0.949 | 1.07 | 0.812 | 0.757 | 0.882 | 0.968
20 | LXF-289 | 0.992 | 1.02 | 1.04 | 0.198 | 0.174 | 0.208 | 0.181 | 0.143 | 0.994 | 0.906 | 0.818 | 0.71 | 0.534 | 0.889 | 0.911 | 0.884 | 0.951 | 0.882 | 1.1 | 0.905
21 | PC-3 [JPC-3] | 0.893 | 0.838 | 0.761 | 0.864 | 0.742 | 0.795 | 0.629 | 0.563 | 0.714 | 0.501 | 0.506 | – | 0.568 | 0.405 | 0.376 | 0.447 | 0.7 | 0.425 | 0.804 | 0.441
22 | HCC-366 | 0.985 | 1.16 | 1.08 | 0.117 | 0.0857 | 0.0884 | 0.07 | 0.0695 | 0.24 | 0.24 | 0.323 | 0.167 | 0.143 | 0.816 | 1.15 | 1.08 | 0.892 | 0.976 | 1.08 | 0.952
23 | NCI-H1651 | 1.03 | 0.885 | 1.06 | 0.666 | 0.555 | 0.541 | 0.526 | 0.498 | 0.454 | 0.427 | 0.352 | 0.439 | 0.186 | 1.02 | 0.836 | 1.09 | 0.811 | 1.09 | 0.931 | 0.761
24 | NCI-H1355 | 1.16 | 0.958 | 0.983 | 0.588 | 0.463 | 0.418 | 0.394 | 0.318 | 0.747 | 0.706 | 0.539 | 0.599 | 0.591 | 0.952 | 0.637 | 0.646 | 1.1 | 0.784 | 1.03 | 0.7
25 | LC-2-ad | 0.942 | 0.971 | 0.965 | 0.487 | 0.406 | 0.406 | 0.393 | 0.306 | 0.732 | 0.584 | 0.518 | 0.403 | 0.406 | 0.834 | 1.05 | 1 | 1 | 0.935 | 0.964 | 0.89
26 | HCC-827 | 1.02 | 1.03 | 1.03 | 0.406 | 0.401 | 0.31 | 0.293 | 0.307 | 0.226 | 0.17 | 0.153 | 0.183 | 0.161 | 0.21 | 0.159 | 0.179 | 0.898 | 0.185 | – | –
27 | NCI-H3122 | 0.986 | 1.06 | 0.992 | 0.367 | 0.322 | 0.183 | 0.217 | 0.142 | 0.947 | 0.642 | 0.292 | 0.361 | 0.308 | 0.928 | 1.06 | 1.02 | 0.943 | 0.934 | 1 | 0.952
